Experimental data published in patent US7138361B2, “Herbicidal heterocycles” (E. I. du Pont de Nemours and Company, priority 2000, dated 2006).

Tests used:
Assay type in all cases: in vivo
[1] = tested on: Surinam grass (Brachiaria decumbens); assay: Test B preemergence; details: scale 0 to 100, 0 no effect, 100 complete control
Outline: (§1)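 Greenhouse test: chemicals are formulated in a surfactant-containing non-phytotoxic solvent and applied either preemergence to planted seeds or postemergence to plants 2 to 18 cm tall. Response is rated visually versus controls after 13 to 15 days, 0 meaning no effect and 100 complete control.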

[2] = tested on: barnyardgrass (Echinochloa crus-galli); assay: Test B preemergence; details: scale 0 to 100, 0 no effect, 100 complete control
Outline: as §1

[3] = tested on: cocklebur (Xanthium strumarium); assay: Test B preemergence; details: scale 0 to 100, 0 no effect, 100 complete control
Outline: as §1

corn (Zea mays) = assay: Test B preemergence; details: scale 0 to 100, 0 no effect, 100 complete control
Outline: as §1

[4] = tested on: crabgrass (Digitaria sanguinalis); assay: Test B preemergence; details: preemergence; Rate 125 g/ha; scale 0 to 100, 0 no effect, 100 complete control
Outline: as §1

[5] = tested on: giant foxtail (Setaria faberii); assay: Test B preemergence; details: scale 0 to 100, 0 no effect, 100 complete control
Outline: as §1

[6] = tested on: lambsquarters (Chenopodium album); assay: Test B preemergence; details: scale 0 to 100, 0 no effect, 100 complete control
Outline: as §1

[7] = tested on: morning glory (Ipomoea hederacea); assay: Test B preemergence; details: Preemergence, Rate 500 g/ha; scale 0 to 100, 0 no effect, 100 complete control
Outline: as §1

[8] = tested on: pigweed (Amaranthus retroflexus); assay: Test B preemergence; details: Preemergence, Rate 500 g/ha; scale 0 to 100, 0 no effect, 100 complete control
Outline: as §1

rice (Oryza saliva) = assay: Test B preemergence; details: Preemergence, Rate 500 g/ha; scale 0 to 100, 0 no effect, 100 complete control
Outline: as §1

[9] = tested on: velvetleaf (Abutilon theophrasti); assay: Test B preemergence; details: Preemergence, Rate 500 g/ha; scale 0 to 100, 0 no effect, 100 complete control
Outline: as §1

Sunflower [10] = assay: Test C preemergence; details: Rate 62 g/ha; scale 0 to 100, 0 no effect, 100 complete control
[11] = tested on: Surinam grass (Brachiaria decumbens); assay: Test C preemergence
Outline: (§2)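 Response scores (0 no effect to 100 complete control) came from visual comparison with untreated controls 12 to 14 days after treatment. Preemergence application was made to seeded soil; postemergence, to plants at the 1- to 4-leaf stage.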

[12] = tested on: bermudagrass (Cynodon dactylon); assay: Test C preemergence
Outline: as §2

[13] = tested on: cocklebur (Xanthium strumarium); assay: Test C preemergence
Outline: as §2

[14] = tested on: common ragweed (Ambrosia elatior); assay: Test C preemergence
Outline: as §2

[15] = tested on: crabgrass (Digitaria sanguinalis); assay: Test C preemergence
Outline: as §2

[16] = tested on: giant foxtail (Setaria faberii); assay: Test C preemergence
Outline: as §2

[17] = tested on: goosegrass (Eleusine indica); assay: Test C preemergence
Outline: as §2

[18] = tested on: morningglory (Ipomoea hederacea); assay: Test C preemergence
Outline: as §2

[19] = tested on: velvetleaf (Abutilon theophrasti); assay: Test C preemergence
Outline: as §2

Sunflower [20] = assay: Test C preemergence; details: Rate 250 g/ha, visual evaluation after 12 to 14 days
[21] = Rate 62 g/ha, scale 0 to 100, 0 no effect, 100 complete control
[22] = preemergence, Rate 31 g/ha, scale 0 to 100
[23] = preemergence, Rate 250 g/ha, visual evaluation after 12 to 14 days
[24] = preemergence, Rate 125 g/ha, scale 0 to 100, 0 no effect, 100 complete control

CC(C)(C)c1ccn(C2CCN(c3ccc(Cl)c(Cl)c3)C2=O)n1 (stereo not shown) [Compound 34]
30: Plant response rating, Foxtail, Giant [16, 21] | Plant response rating, Foxtail, Giant [16, 22]
50: Plant response rating (0 to 100), Foxtail, Giant [16, 23]
90: Plant response rating, Bermudagrass [12, 24]
70: Plant response rating, Foxtail, Giant ([5]; Preemergence, Rate 500 g/ha) | Plant response rating, Crabgrass [15, 24]
100: Plant response rating, Crabgrass [4] | Plant response rating, Lambsquarters ([6]; Preemergence, Rate 500 g/ha) | Plant response rating, Pigweed [8] | Plant response rating, Velvetleaf [9] | Plant response rating (0 to 100 where 0 is no effect and 100 is complete control), Bermudagrass [12, 23] | Plant response rating (0 to 100), Crabgrass [15, 23] | Plant response rating (0 to 100), Goosegrass [17, 23]
80: Plant response rating, Bermudagrass [12, 21] | Plant response rating, Goosegrass [17, 21] | Plant response rating, Goosegrass [17, 24]
60: Plant response rating, Barnyardgrass ([2]; Preemergence, Rate 500 g/ha) | Plant response rating, Crabgrass [15, 21]
20: Plant response rating, Surinam grass ([1]; Preemergence, Rate 500 g/ha) | Plant response rating, Lambsquarters ([6]; preemergence, Rate 125 g/ha) | Plant response rating, Goosegrass [17, 22]
0: Plant response rating, Surinam grass ([1]; preemergence, Rate 125 g/ha) | Plant response rating, Barnyardgrass ([2]; preemergence, Rate 125 g/ha) | Plant response rating, Cocklebur ([3]; Preemergence, Rate 500 g/ha) | Plant response rating, Cocklebur ([3]; preemergence, Rate 125 g/ha) | Plant response rating, Corn (corn (Zea mays); Preemergence, Rate 500 g/ha) | Plant response rating, Corn (corn (Zea mays); preemergence, Rate 125 g/ha) | Plant response rating, Foxtail, Giant ([5]; preemergence, Rate 125 g/ha) | Plant response rating, Morningglory [7] | Plant response rating, Rice (rice (Oryza saliva)) | Plant response rating, Sunflower (Sunflower [10]) | Plant response rating, Surinam grass [11, 21] | Plant response rating, Surinam grass [11, 22] | Plant response rating (0 to 100), Surinam grass [11, 23] | Plant response rating, Surinam grass [11, 24] | Plant response rating, Bermudagrass [12, 22] | Plant response rating, Cocklebur [13, 21] | Plant response rating, Cocklebur [13, 22] | Plant response rating (0 to 100), Cocklebur [13, 23] | Plant response rating, Cocklebur [13, 24] | Plant response rating, Ragweed, Common [14, 21] | Plant response rating, Ragweed, Common [14, 22] | Plant response rating (0 to 100), Ragweed, Common [14, 23] | Plant response rating, Ragweed, Common [14, 24] | Plant response rating, Crabgrass [15, 22] | Plant response rating, Foxtail, Giant [16, 24] | Plant response rating, Morningglory [18, 21] | Plant response rating, Morningglory [18, 22] | Plant response rating (0 to 100), Morningglory [18, 23] | Plant response rating, Morningglory [18, 24] | Plant response rating, Velvetleaf [19, 21] | Plant response rating, Velvetleaf [19, 22] | Plant response rating (0 to 100), Velvetleaf [19, 23] | Plant response rating, Velvetleaf [19, 24] | Plant response rating (0 to 100), Sunflower (Sunflower [20])
